Data published in patent publication US8691801B2, “Use of manzamine compounds in anti-cancer therapeutic regimens” (Florida Atlantic University Board of Trustees, priority 2006, dated 2014).
Read-outs that look alike come from different tables or passages of the source.

Tests used:
AsPC-1 cells [1] = test system: AsPC-1 cells
Procedure: (§1) TRAIL induced apoptosis. 12,000 AsPC-1 cells were plated on a 96-well tissue culture plate at a volume of 200 μl/well, allowing for twelve replicate wells per treatment. Cells were allowed to adhere for 24 hours. At the end of this incubation, 100 μl of medium were removed from each test well and 100 μl of medium containing treatment were added. Treatment consisted of media alone, media with methanol, 10 μM Manzamine A or 20 μg/m1 U0126. The cells were then incubated for 48 hours at 37° C. and 5% CO2. After this incubation, half of the wells of each treatment were incubated with 100 ng/ml Super Killer TRAIL (Alexis, San Diego, Calif.) for 18 hours at 37° C. and 5% CO2. At the end of this incubation, 75 μl of a 5 mg/ml MTT solution were added to each well. The cells were then incubated for 3 hours at 37° C. The plates were centrifuged for 10 minutes at 800 rpm. The supernatant was removed and 200 μl acidified isopropyl alcohol (1:500 solution of hydrochloric acid to isopropanol) were added to each well. The plates were shaken for 15 minutes. The absorbencies of these solutions were measured at 570 nm with a plate reader (NOVOstar, BMG Labtech Inc., Durham, N.C.). The resulting absorbencies were plotted using Microsoft Excel. […]

AsPC-1 cells [2] = format: cell-based
Text: In Vitro Cell Invasion Assay. The invasiveness of AsPC-1 cells alone, treated with our test compounds or treated with U0126 as a positive control will be evaluated in 24-well transwell chambers, as described by Fu et al. “Effects of raf kinase inhibitor protein expression on suppression of prostate cancer metastasis”. […] Briefly, the upper and lower culture compartments of each well are separated by polycarbonate membranes (8-μm pore size). To determine baseline migration, 2.5×10^4 cells in 0.5 mL of complete medium containing 5% FBS are placed into the upper compartment of uncoated wells (BD Discovery Labware, San Diego, Calif.), and 0.75 mL of complete medium containing 10% FBS are placed into the lower compartment. In parallel, to assess the ability of the same cells to penetrate a collagen matrix, the experiment is repeated using upper compartments coated with 100 μg/cm^2 of collagen matrix (BD Discovery Labware, San Diego, Calif.). The transwell chambers are incubated for 24 hours at 37 ° C. in 95% air and 5% CO2. Cell penetration through the membrane is detected by staining the cells on the porous membrane with a Diff-Quik stain kit' observing under the microscopic and capturing images with a digital camera.

AsPC-1 cells [3] = assay: Morphological changes (cell dissociation) induced in AsPC-1 cells; format: cell-based
Procedure: Cell Culture Conditions for the AsPC-1 pancreatic adenocarcinoma cell line. AsPC-1, a pancreatic adenocarcinoma cell line, was obtained from ATCC, grown, aliquotted and frozen stocks were maintained in liquid nitrogen. Aliquots of the stock cells were thawed and grown in RPMI-1640 supplemented with 10% Fetal Bovine Serum, 0.11 mg/ml Sodium Pyruvate, 4.5 g/L D-glucose, 18 mM HEPES Buffer, 100 U/ml penicillin G sodium, 100 μg/ml streptomycin sulfate, 0.25 μg/ml amphotericin B, 2 mM L-glutamine and 50 μg/ml gentamicin (Complete RPMI). Cells were maintained in a humidified incubator at 37° C. and 5% CO2.
An observation was made that inhibiting the constitutive activation of MEK abrogates cell dissociation (Tan, X. et al., 2004 “Involvement of the mitogen-activated protein kinase kinase 2 in the induction of cell dissociation in pancreatic cancer” Int J Oncol 24(1):65-73), a precursor step in metastasis.

AsPC-1 cells [4] = assay: Cell viability assay (MTT); format: cell-based; details: pancreatic cancer cells
Procedure: Cell viability assays. A 3-[4,5-Dimethyl-2-thiazolyl]-2,5-diphenyl-2H-tetrazolium bromide (MTT) based assay was used to determine cell viability. […] Cells were allowed to adhere for 24 hours. […] Treatment consisted of 5 μM or 50 μM of Manzamine A, media alone, media with methanol, or 20 μg/ml U0126. […] After this incubation, 75 μl 5 mg/ml MTT were added to each well. […] The plates were shaken for 15 minutes. […] The resulting absorbencies were plotted using Microsoft Excel.

AsPC-1 cells [5] = assay: TRAIL induced apoptosis (MTT readout); details: 10 μM manzamine A, 48 hours, without TRAIL
Procedure: as §1

SMILES	cytotoxicity of treatment alone (AsPC-1 cells [1])	prevention of cell migration (AsPC-1 cells [2])	abrogation of cell dissociation (AsPC-1 cells [3]; AsPC-1 cells treated 48 hours with 1.25, 2.5, 5, 10 μM Manzamine A, microscopy)	abrogation of cell dissociation, dose dependence (AsPC-1 cells [3]; AsPC-1 cells, 48 hours, 5 and 10 μM dose compared with 1.25 and 2.5 μM)	dose needed for similar effects relative to U0126 (AsPC-1 cells [3]; effects on cell dissociation, migration and TRAIL resistance, manzamine A vs U0126)	prevention of cell migration (AsPC-1 cells [2]; AsPC-1 cells treated 48 hours, 5 and 10 μM Manzamine A, transwell, collagen matrix)	cytotoxicity at small doses (AsPC-1 cells [4])	cytotoxicity of treatment alone (AsPC-1 cells [5])
N#CC(=C(/N)Sc1ccccc1N)/C(C#N)=C(\N)Sc1ccccc1N [U0126, reference compound]	induced some cytotoxicity	prevented cell migration						
O[C@]12C=C(c3nccc4c3[nH]c3ccccc34)[C@@H]3CCN(CCCC/C=C\CC1)C[C@@]31CC3/C=C\CCCCN3[C@H]12 (some centres unmarked) [Manzamine A, manzamine A]			caused abrogation of cell dissociation similar to that caused by pMEK inhibitors	stronger at the 5 and 10 μM dose	a fifth of the dose needed for U0126	prevented cell migration similar to that caused by the pMEK inhibitor U0126	little cytotoxicity	induced some cytotoxicity
